In patent US20230226138A1, “COMPOSITIONS AND METHODS FOR TREATING INFECTIONS AND NETOPATHY” (Black Cat Bio Limited, priority 2020, published 2023):
Where two headings read alike, the source gives them in different places.

Key:
[1] = test system: TMPRSS2; assay type: cell-based, human; details: for TMPRSS2 protein expression: relative to non-DHT stimulated control
Protocol: (§1) LNCaP and A549 cells were seeded at a density of 1×10^6 in 6-well plates and incubated for 72 hours in phenol red free RPM1-1640 and DMEM media (Lonza), supplemented with 5% and 2% double charcoal stripped FCS (First Link UK) respectively, and 2 mM I-glutamine, 100 units/ml penicillin and […] streptomycin (Sigma). Cells were treated with 100 ng/ml Epithelial Growth Factor (EGF, Sigma) or 1 nM DHT (dihydrotestosterone, Sigma) ±SA Inhibitor for 72 hrs. Cells were harvested and proteins separated using SDS-PAGE. Blots were probed with antibodies specific for TMPRSS2 (ab92323, Abcam) and α-tubulin (B-5-1-2, Sigma). Protein levels were visualized using a chemiluminescence imaging system (Fusion FX, Vilber). Densitometry was performed using Image J and TMPRSS2 levels normalised to the internal control (Tubulin).

[2] = test system: TMPRSS2; assay type: cell-based, human; details: for TMPRSS2 protein expression: relative to non-DHT stimulated control; remark: listed apart in the source
Protocol: as §1

[3] = target: Src kinase (Homo sapiens, UniProt P12931); details: cited from earlier work
[4] = animal disease models; cited from earlier work
[5] = test system: P38MAP kinase; details: cited from earlier work
[6] = test system: TMPRSS2; assay: TMPRSS2 protein levels in A549 in full media (SDS-PAGE blot, densitometry); assay type: cell-based, human; details: A549, full media (10% FCS), 72 hrs
Protocol: A549 were seeded in 6-well plates at a density of 1×10^6 per well. Cells were incubated in DMEM media (Lonza), supplemented with 10% FCS (HyClone) and 2 mM !-glutamine, 100 units/ml penicillin and 100 mg/ml streptomycin (Sigma). […] Cells were treated with 0-1 μM SA Inhibitor (SEQ ID NO: 2) or 10 μM Enzalutamide (ENZA, Sigma) for 72 hrs. Cells were harvested and proteins separated using SDS-PAGE. Blots were probed with antibodies specific for TMPRSS2 (ab92323, Abcam) and α-tubulin (B-5-1-2, Sigma). Protein levels were visualized using a chemiluminescence imaging system (Fusion FX, Vilber). Densitometry was performed using Image J and TMPRSS2 levels normalized to the internal control (Tubulin).

[7] = test system: Neutrophils (NETosis); assay type: cell-based, human
Protocol: Neutrophils, isolated as described in Example 4 (or by equivalent methodology as known in the art, for example, Ficoll Density gradient and dextran sedimentation followed by Red blood cell lysis with hypertonic solution) are resuspended in phenol red free RPMI 1640 media at a density of 2×10^6 cells per milliliter and incubated for five minutes in the dark at room temperature with NUCLEAR-ID Red (membrane impermeable) DNA dye to stain nuclei (1 ml/1.5 ml of cell suspension; Enzo Life Sciences). Cells are washed three times to remove free Dye by centrifuging at 2400 RFI for 5 min to pellet the cells and replacing supernatant with 1 ml fresh phenol red free RPMI 1640 media. […]
Neutrophils are imaged within 10 min of plating using phase contrast, red (800-ms exposure), and green (400-ms exposure) channels in an IncuCyte ZOOM platform, housed inside an incubator at 37° C. with 5% CO2. […] The Number of neutrophils is then calculated as the average red count for the three images per well and the Number of green cells calculated as the average green count. The percentage of neutrophils undergoing NETosis is calculated as the average green count divide by the average red count at each time point measured.

[8] = test system: TMPRSS2; details: 6 hrs; for relative expression of TMPRSS2: LNCaP
Protocol: (§2) LNCaP (prostate) and A549 (Androgen receptor positive, human alveolar carcinoma-derived cell line with type II pneumonocyte properties) cells were seeded in 12-well plates (2×10^5 cells per well) in phenol red free RPMI-1640 and DMEM media (Lonza), supplemented with 5% and 2% double charcoal stripped FCS (First Link UK) respectively, and 2 mM I-glutamine, 100 units/ml penicillin and […] streptomycin (Sigma). Charcoal stripping was required to remove residual traces of hormones (Sedelaar et al, (2009)). Cells were treated with 0-100 nM dihydrotestosterone (DHT, Sigma) for 6 hrs. RNA was extracted using TRIzol (Thermo Fisher Scientific) and reverse transcribed (LunaScript RT Supermix Kit, NEB). TMPRSS2 and ACE2 expression was quantified using qPCR (LightCycler 96, Roche) and the data normalized to an internal control (L19).

[9] = test system: ACE2; details: 6 hrs
Protocol: as §2

[10] = test system: NETosis in Neutrophils (H3R8 citrullinated nucleosomes); assay: NETosis quantified by release of H3R8 citrullinated nucleosomes from stimulated neutrophils; assay type: cell-based, human; details: for citrullinated nucleosomes: 4 hours
[11] = test system: Neutrophils (NETosis); assay: Live cell imaging of IL6 triggered NETosis (Example 6); assay type: cell-based, human
Protocol: In a similar experiment to that described in Example 5, IL6 (Merck, Product Number H7416-10UG) is used to activate NETosis in response to LPS using a similar checkerboard configuration as shown in Table 4 (working IL6 concentrations 0, 10, 50 and 100 ng/mL).

[12] = test system: Neutrophils (NETosis); assay: Live cell imaging of IL8 triggered NETosis (Example 7); assay type: cell-based, human
Protocol: In a similar experiment to that described in Example 5, IL8 (Merck, Product Number 11645-10UG) is used to activate NETosis in response to LPS using a similar checkerboard configuration as shown in Table 4 (working IL6 concentrations 0, 1, 10 and 100 nM).

[13] = Patient case, flare up of Chron's disease, dry powder inhaler (second Example 14); assay type: in vivo, human; details: one metered dose (1 mg/kg) each morning, after eight days
Protocol: […] […] The patient is advised to take one metered dose (1 mg/kg) each morning until symptoms abate.

[14] = test system: SARS-COV-2 infection; assay: Patient case, standalone SA inhibitor to reduce viral load (Example 12); assay type: in vivo, human; details: 4 mg/kg once daily sub-cutaneous, after a few days
Description: A patient is brought into the hospital suffering from respiratory flu like symptoms. A blood sample is taken from the patient, who is confirmed by PCR analysis of viral RNA to have a SARS-COV-2 infection. […] Administration of the peptide continues until the patient is confirmed to be virus free by PCR.

[15] = test system: NETosis in Neutrophils (H3.1 nucleosomes); assay: NETosis quantified by release of H3.1 nucleosomes from stimulated neutrophils; details: 4 hours
Protocol: The ability of SA Inhibitor to reduce NETosis in Neutrophils stimulated by lipopolysaccharide (LPS, Sigma Aldrich, Product Number L4391-1MG) alone or in combination with Epidermal growth factor (Sigma Aldrich, Product Number SRP3027-500UG) was compared to the efficacy of a Src kinase Inhibitor (PP2, Sigma Aldrich, Product Number P0042-5MG) and a PAD4 inhibitor (GSK484, Cambridge Bioscience UK, Product Number CAY17488-1 mg) which is known to down regulate NETosis by preventing citrullination of histone proteins. […]
Tube-2 was placed into the magnet and after 10 minutes incubation the clear fraction (enriched cell suspension) collected by single pipette and transferred into a fresh 50 ml conical falcon tube (Tube-3) which was placed back into the magnet for a final, third separation. The clear fraction, containing purified, isolated neutrophils was transferred into a fresh 50 ml conical falcon tube (Tube-4) and the neutrophil cell Number, % viability and yield determined by cell counting and Trypan blue exclusion. […]

[16] = test system: Staphylococcus aureus infection; assay: Patient case, bacterial infection with septic shock (Example 10); assay type: in vivo, human; details: 4 mg/kg sub-cutaneous once daily, antibiotics also administered, after a few days
Protocol: A patient is seen in the Emergency Room. The patient is running a temperature of 102° F. with a heart rate exceeding 90 beats/minute and rapid breathing. Septic shock is confirmed based on the requirement for vasopresser administration to maintain a mean arterial pressure of 65 mmHg and serum lactate level over 2 mmol/L. The patient is noted to be suffering from impaired kidney function. […] A Staphylococcus aureus infection is confirmed, and antibiotics administered. […] The peptide is continued to be administered once daily to the patient until the patient is recovered.

[17] = test system: COVID-19 virus infection; assay: Patient case, standalone SA inhibitor, viral load and NETosis (Example 13); assay type: in vivo, human; details: 4 mg/kg once daily sub-cutaneous
[18] = test system: COVID-19 patient derived neutrophils (NETosis); assay: Live cell imaging of NETosis in COVID-19 patient derived neutrophils (Example 8); assay type: cell-based, human; details: neutrophils from a SARSCoV-2 patient in intensive care
[19] = Patient case, sterile inflammatory response following trauma (Example 11); assay type: in vivo, human; details: 4 mg/kg sub-cutaneous once daily, post traumatic sepsis, after a few days
Description: The patient is admitted to an intensive care unit and placed in an induced coma. […] The patients' cultures fail to reveal a bacterial infection. After a few days of once daily administration of the peptide, markers of Systematic Inflammatory Response Syndrome (SIRS), including temperature, heart rate and breathing rate improve. The peptide is continued to be administered until SIRS markers have returned to normal.

Sequence of Src kinase (P12931 whole entry): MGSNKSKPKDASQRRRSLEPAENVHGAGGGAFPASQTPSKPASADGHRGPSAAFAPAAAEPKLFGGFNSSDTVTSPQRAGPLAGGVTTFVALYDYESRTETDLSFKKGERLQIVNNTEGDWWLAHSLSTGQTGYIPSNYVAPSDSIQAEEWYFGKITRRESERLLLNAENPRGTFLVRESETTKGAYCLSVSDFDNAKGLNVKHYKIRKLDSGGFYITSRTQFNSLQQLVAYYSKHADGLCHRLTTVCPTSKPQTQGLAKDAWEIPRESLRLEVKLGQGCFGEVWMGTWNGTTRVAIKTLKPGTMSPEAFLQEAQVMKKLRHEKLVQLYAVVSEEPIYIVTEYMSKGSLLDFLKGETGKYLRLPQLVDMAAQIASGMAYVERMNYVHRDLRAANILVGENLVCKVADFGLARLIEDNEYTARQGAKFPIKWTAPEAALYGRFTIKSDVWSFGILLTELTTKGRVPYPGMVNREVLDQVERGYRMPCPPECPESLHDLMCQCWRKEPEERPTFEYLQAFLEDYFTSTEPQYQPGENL

Compound: EGF: Epithelial Growth Factor (EGF, Sigma) (NSDSECPLSHDGYCLHDGVCMYIEALDKYACNCVVGYIGERCQYRDLKWWELR; UniProt P01133 971-1023, looked up) [reference compound]
- TMPRSS2 relative expression ([1]; A549, 100 ng/ml EGF, 72 hrs): 797%
- TMPRSS2 relative expression ([2]; LNCaP, 100 ng/ml EGF, 72 hrs): 62.8%

Compound: O=C(O)c1cccnc1 [Niacin]
- Src kinase activity [3]: inhibited
- chemically induced lung fibrosis [4]: reduced
- P38MAP kinase activity [5]: inhibited

Compound: CNC(=O)c1ccc(N2C(=S)N(c3ccc(C#N)c(C(F)(F)F)c3)C(=O)C2(C)C)cc1F [enzalutamide, Enzalutamide, reference compound]
- expression of TMPRSS2 protein ([6]; 10 μM Enzalutamide): did not achieve down regulation

Compound: C[C@]12CCC(=O)C[C@@H]1CC[C@@H]1[C@@H]2CC[C@]2(C)[C@@H](O)CC[C@@H]12 [dihydrotestosterone]
- level of NETosis (percentage of neutrophils undergoing NETosis) [7]: increased with increasing concentrations of dihydrotestosterone
- TMPRSS2 expression increase ([8]; A549, 1 nM dihydrotestosterone, compared to cells grown in the absence of dihydrotestosterone): over 2 ×
- relative expression of TMPRSS2 ([8]; 0.1 nM dihydrotestosterone, compared to cells grown in the absence of dihydrotestosterone): approximately 3 ×
- relative expression of TMPRSS2 ([8]; 10 nM dihydrotestosterone, compared to the control): 6 ×
- relative expression of ACE2 ([9]; A549, 0-100 nM dihydrotestosterone): slight negative correlation with dihydrotestosterone concentration
- expression of ACE2, dose response to stimulation ([9]; LNCaP, 0-100 nM dihydrotestosterone): TMPRSS2, but not ACE2, showed a dose response
- TMPRSS2 relative expression [1]: 120.9%
- TMPRSS2 relative expression [2]: 168%

Compound: COc1cc(C(=O)N2CC[C@@H](O)[C@@H](N)C2)cc2nc(-c3cc4ccccc4n3CC3CC3)n(C)c12 [PAD4i, reference compound]
- suppression of NETosis by citrullinated nucleosome marker ([10]; LPS or LPS and EGF (FIG. 4C, 4D), inhibitor 0.1-10 uM): dose response reduction in citrullinated nucleosomes levels

Compound: IL6: IL6 (Merck) used to activate NETosis in response to LPS [reference compound]
- level of NETosis ([11]; LPS trigger, IL6 0, 10, 50 and 100 ng/mL): increased with increasing concentrations of IL6

Compound: IL8: IL8 (Merck) used to activate NETosis in response to LPS [reference compound]
- level of NETosis ([12]; LPS trigger, IL8 0, 1, 10 and 100 nM): increased with increasing concentrations of IL8

Compound: Ac-Pro-Pro-Pro-His-Pro-His-Ala-Arg-Ile-Lys-NH2 (Ac-PPPHPHARIK-NH2) [SA Inhibitor]
- Chron's disease flare up outcome [13]: goes back into remission
- effect on DHT increased NETosis ([7]; 20 ug/mL LPS trigger plus DHT, SA Inhibitor 1 nM-1 mM, 30 minutes preincubation): This increase is reversed
- viral load as determined by PCR [14]: lower than what would have been expected in the absence of the administration of the peptide
- effect on IL6 increased NETosis ([11]; LPS trigger plus IL6, SA Inhibitor checkerboard as Table 4): This increase is reversed
- H3.1 NETosis derived nucleosome levels ([15]; LPS in combination with EGF, without inhibitor 641.9 ng/mL, inhibitor concentration not stated): 254.2 ng/mL
- H3.1 nucleosomes released ([15]; LPS trigger, 0.1 uM SA Inhibitor, LPS alone 523.2 ng/mL): 339.4 ng/mL
- effect on IL8 increased NETosis ([12]; LPS trigger plus IL8, SA Inhibitor checkerboard as Table 4): This increase is reversed
- TMPRSS2 protein expression ([1]; A549, SA Inhibitor in the absence of DHT stimulation, 72 hrs): 77.6%
- TMPRSS2 protein expression ([1]; A549, SA Inhibitor with DHT stimulation (1 nM), 72 hrs): 70.2%
- expression of TMPRSS2 protein ([6]; 0-1 μM SA Inhibitor): decreased expression up to 10 nM SA Inhibitor followed by a progressive increase up to 1 μM
- kidney function [16]: returns to normal
- markers of SIRS (temperature, heart rate, breathing rate) [16]: improve
- lung function / SpO2 [17]: improved lung function with a higher measured SpO2 level
- viral load, as measured by PCR ([17]; after a few days): reduced and lower than would be expected in the absence of the peptide
- level of NETosis [18]: shown to decrease in the treated neutrophils
- markers of SIRS (temperature, heart rate, breathing rate) [19]: improve
- citrullinated nucleosomes ([10]; LPS trigger, 0.1 uM SA Inhibitor, LPS alone 158 ng/mL): 126.5 ng/mL
- citrullinated nucleosomes ([10]; LPS trigger, 10 uM SA Inhibitor, LPS alone 158 ng/mL): 66.6 ng/mL
- citrullinated nucleosomes ([10]; combined LPS and EGF, 0.1 uM SA Inhibitor, without inhibitor 208.5 ng/mL): 111.1 ng/mL
- effect on EGF suppression of TMPRSS2 expression ([2]; EGF alone and with DHT, cell line not specified (LNCaP and A549 tested)): reversed this inhibitory effect
- TMPRSS2 protein expression ([2]; LNCaP, SA Inhibitor in the absence of DHT stimulation, 72 hrs): 58.7%
- TMPRSS2 protein expression ([2]; LNCaP, SA Inhibitor with DHT stimulation (1 nM), 72 hrs): 60.4%
